Source: patent US20220205049A1, “METHODS OF DETECTING AND PREDICTING BREAST CANCER” (priority 2019, published 2022)

Test system: breast tissue
Assay: Mifepristone trial: breast tissue biopsies before and after treatment, DNA methylation (EPIC array), EpiDISH cell type composition and WID-BC-index
Type: in vivo, human
From the text: The second set of samples were obtained from the clinical trial “The Effect of a Progesterone Receptor Modulator on Breast Tissue in Women With BRCA-1 and -2 Mutations—a Placebo Controlled RCT” (ClinicalTrials.gov Identifier: NCT01898312; regional ethical review board at Karolinska Institutet permit 2009/144-31/4). Study subjects were healthy premenopausal women aged 18-43 years with regular menstrual cycles lasting 25-35 days and with no contraindications to mifepristone. The main exclusion criteria were: use of any hormonal or intrauterine contraception and pregnancy or breastfeeding 2 months prior to the study; a history of breast cancer or other malignancies and adnexal abnormality upon transvaginal ultrasound examination. All women were instructed to use barrier contraceptive methods throughout the duration of the study.
After signing an informed consent, study subjects were randomised into two groups. One group (i.e. 11 BRCA carriers and 9 controls) was treated with 50 mg mifepristone (one quarter of 200 mg Mifegyne®, Exelgyn, Paris, France) every other day for two months (56 days) starting on the first day of the menstrual cycle. […]
We analysed breast tissue samples from 21 BRCA carriers and 23 healthy controls before and after treatment with either mifepristone or placebo for two months. […]

CC#C[C@]1(O)CC[C@H]2[C@@H]3CCC4=CC(=O)CCC4=C3[C@@H](c3ccc(N(C)C)cc3)C[C@@]21C [mifepristone]
women with downward trend in the WID-BC-index after treatment (breast tissue, after adjustment for fat content, before vs after two months treatment, did not reach statistical significance): 80%
epithelial cell proportion in breast tissue samples after treatment (matched BRCA carrier and control groups, before vs after 50 mg every other day for two months, not seen in the placebo group): statistically significant decrease
